This note sets out measurements from patent publication US10004732B2 (Novartis AG, priority 2014, dated 2018).

SMILES strings stand for the structures.

Data set [1] deals with T1, PI 3-kinase alpha (Homo sapiens, UniProt P42336). Briefly: Kinase Glo Luminescent Kinase Assay (Kglo), assay A. In kind it is biochemical. The conditions noted are these: read-out: Assay A PI3Kα IC50.
Target sequence in this assay (P42336 whole entry): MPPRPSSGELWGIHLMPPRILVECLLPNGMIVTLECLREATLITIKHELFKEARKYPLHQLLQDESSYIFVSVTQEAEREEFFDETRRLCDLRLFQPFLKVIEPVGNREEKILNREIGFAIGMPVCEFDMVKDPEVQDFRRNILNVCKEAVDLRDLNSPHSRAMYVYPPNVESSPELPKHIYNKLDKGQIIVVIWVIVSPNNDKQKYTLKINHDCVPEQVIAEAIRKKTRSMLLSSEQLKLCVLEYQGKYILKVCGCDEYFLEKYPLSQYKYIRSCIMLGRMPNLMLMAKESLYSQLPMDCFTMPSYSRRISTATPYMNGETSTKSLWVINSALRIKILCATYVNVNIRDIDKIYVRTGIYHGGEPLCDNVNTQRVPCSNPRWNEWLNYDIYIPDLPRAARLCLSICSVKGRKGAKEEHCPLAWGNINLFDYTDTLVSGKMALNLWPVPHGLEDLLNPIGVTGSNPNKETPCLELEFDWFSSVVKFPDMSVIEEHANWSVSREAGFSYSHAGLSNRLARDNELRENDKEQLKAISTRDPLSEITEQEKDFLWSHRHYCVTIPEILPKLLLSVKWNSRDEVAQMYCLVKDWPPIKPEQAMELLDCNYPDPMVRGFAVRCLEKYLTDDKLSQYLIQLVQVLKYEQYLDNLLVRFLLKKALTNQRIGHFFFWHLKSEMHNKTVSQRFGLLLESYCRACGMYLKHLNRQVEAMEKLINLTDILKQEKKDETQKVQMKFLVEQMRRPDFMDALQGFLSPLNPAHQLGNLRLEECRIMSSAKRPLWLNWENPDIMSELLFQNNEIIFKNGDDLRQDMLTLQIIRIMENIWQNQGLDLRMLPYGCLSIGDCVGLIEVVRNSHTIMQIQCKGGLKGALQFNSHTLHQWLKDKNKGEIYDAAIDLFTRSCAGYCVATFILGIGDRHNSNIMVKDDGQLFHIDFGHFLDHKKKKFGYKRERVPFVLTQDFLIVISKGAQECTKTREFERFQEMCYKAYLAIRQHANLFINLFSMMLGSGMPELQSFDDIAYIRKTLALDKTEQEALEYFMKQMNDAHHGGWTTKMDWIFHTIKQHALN
Data set [2] has as its target T2, PI 3-kinase beta (Homo sapiens, UniProt P42338). Kind of data set: Kinase Glo Luminescent Kinase Assay (Kglo), assay B. The format is biochemical. The note with it: read-out: Assay B PI3Kβ IC50. In general terms: Kinase-Glo measures the ATP left after a reaction by luminescence.
Target sequence in this assay (P42338 whole entry): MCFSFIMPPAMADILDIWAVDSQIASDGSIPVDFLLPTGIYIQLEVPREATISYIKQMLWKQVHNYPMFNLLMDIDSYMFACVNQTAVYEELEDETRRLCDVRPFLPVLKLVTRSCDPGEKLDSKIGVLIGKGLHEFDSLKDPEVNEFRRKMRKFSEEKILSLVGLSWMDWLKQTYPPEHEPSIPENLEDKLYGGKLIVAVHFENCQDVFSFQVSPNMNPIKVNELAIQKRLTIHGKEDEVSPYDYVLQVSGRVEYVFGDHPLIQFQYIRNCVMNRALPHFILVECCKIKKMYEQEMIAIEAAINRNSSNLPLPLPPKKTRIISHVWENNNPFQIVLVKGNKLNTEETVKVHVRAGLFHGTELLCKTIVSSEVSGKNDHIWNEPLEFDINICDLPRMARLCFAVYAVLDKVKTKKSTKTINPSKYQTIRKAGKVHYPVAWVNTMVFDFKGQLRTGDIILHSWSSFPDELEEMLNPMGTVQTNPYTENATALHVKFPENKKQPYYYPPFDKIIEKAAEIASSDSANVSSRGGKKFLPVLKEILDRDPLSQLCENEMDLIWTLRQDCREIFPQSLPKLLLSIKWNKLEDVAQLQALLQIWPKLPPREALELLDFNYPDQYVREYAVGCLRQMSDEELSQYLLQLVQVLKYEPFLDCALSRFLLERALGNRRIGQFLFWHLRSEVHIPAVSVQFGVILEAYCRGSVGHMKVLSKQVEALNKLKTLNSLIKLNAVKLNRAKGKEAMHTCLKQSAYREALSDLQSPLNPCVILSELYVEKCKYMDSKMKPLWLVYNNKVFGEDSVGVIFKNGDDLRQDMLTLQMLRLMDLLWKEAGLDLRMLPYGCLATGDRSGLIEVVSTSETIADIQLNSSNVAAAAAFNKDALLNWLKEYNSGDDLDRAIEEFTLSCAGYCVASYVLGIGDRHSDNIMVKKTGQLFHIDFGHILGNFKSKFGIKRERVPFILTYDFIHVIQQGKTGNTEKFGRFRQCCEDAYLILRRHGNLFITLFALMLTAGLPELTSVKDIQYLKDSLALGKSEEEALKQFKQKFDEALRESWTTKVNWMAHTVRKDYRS
Target sequence in this assay (P27986 461-568 partner): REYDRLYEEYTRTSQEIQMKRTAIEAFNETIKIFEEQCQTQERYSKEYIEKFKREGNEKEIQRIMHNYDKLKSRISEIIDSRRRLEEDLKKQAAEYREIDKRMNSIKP
A further data set concerns the target Vps34 (Homo sapiens, UniProt Q8NEB9). Briefly: Kinase Glo Luminescent Kinase Assay (Kglo), assay C. In kind it is biochemical. The note with it: read-out: Assay C VPS34 IC50.
For another data set, the target named is PI 4-kinase beta (Homo sapiens, UniProt Q9UBF8). Kind of data set: Kinase Glo Luminescent Kinase Assay (Kglo), assay D. The format is biochemical. The conditions noted are these: read-out: Assay D PI4Kβ IC50.
Data set [3] has as its target T3, PI 3-kinase gamma (Homo sapiens, UniProt P48736). Briefly: TR-FRET Adapta assay, assay E. The format is biochemical. The conditions noted are these: read-out: Assay E PI3Kγ IC50.
Method: TR-FRET Adapta Assay for PI 3-Kinase Gamma (E), PI 3-Kinase Delta (F)
The TR-FRET Adapta™ Universal Kinase Assay Kit was purchased from Invitrogen Corporation (Carlsbad/CA, USA) (Cat. No. PV5099).
PIK3CD substrate phosphatidylinositol (PI) was obtained from Invitrogen (vesicules consisting of 2 mM phosphatidylinositol (PI) in 50 mM HEPES pH7.5; Cat. No. PV5371). PIK3CG substrate phosphatidylinositol-4,5-bisphosphate (PIP(4,5)2 was obtained from Invitrogen (PIP2:PS large unilamellar vesicules consisting of 1 mM PIP2: 19 mM PS in 50 mM HEPES pH7.5, 3 mM MgCl2, 1 mM EGTA; Cat. No. PV5100).
Time-Resolved Fluorescence Resonance Energy Transfer (TR-FRET) is a technology based on energy transfer between two adjacent dyes, from an excited electron in one dye (the donor) to an electron of an adjacent dye (the acceptor) through resonance, then released as a photon. This energy transfer is detected by an increase in the fluorescence emission of the acceptor, and a decrease in the fluorescence emission of the donor. TR-FRET assays for protein kinases use a long-lifetime lanthanide Terbium or Europium chelates as the donor species which overcome interference from compound autofluorescence or light scatter from precipitated compounds, by introducing a delay after excitation by a flashlamp excitation source. Results are often expressed as a ratio of the intensities of the acceptor and donor fluorophores. The ratiometric nature of such a value corrects for differences in assay volumes between wells, as well as corrects for quenching effects due to colored compounds. The Adapta™ assay can be divided into two phases: a kinase reaction phase and an ADP detection phase. In the kinase reaction phase, all kinase reaction components are added to the well and the reaction is allowed to incubate for a set period of time specific for each kinase. […] In the presence of an inhibitor, the amount of ADP formed by the kinase reaction is reduced, and the resulting intact antibody-tracer interaction maintains a high TR-FRET signal.
50 nL of compound dilutions were dispensed onto white 384-well small volume polystyrene plate. Then 5 μL of either PI 3-kinase gamma or PI 3-kinase delta and lipid substrate (PI or PIP2:PS) followed by 5 μL of ATP (final assay volume 10 μL) are incubated at RT. The standard reaction buffer for the Adapta™ TR-FRET assay contained 10 mM Tris-HCl pH 7.5, 3 mM MgCl2, 50 mM NaCl, 1 mM DTT, 0.05% CHAPS 3-[(3-cholamidopropyl)dimethylammonio]-1-propanesulfonate).
Data are analyzed using Excel fit software or Graphpad Prism. IC50 values were derived by fitting a sigmoidal dose-response curve to a plot of assay readout over inhibitor concentration. All fits were performed with the program XLfit4 (ID Business Solutions, Guildford, UK). […] All fits were performed with the program XLfit4 (ID Business Solutions, Guildford, UK).
In another data set the target is mTOR (Homo sapiens, UniProt P42345). Kind of data set: Lanthascreen kinase binding assay, assay G. The conditions noted are these: read-out: Assay G mTOR IC50.
Data set [4] addresses T3, PI 3-kinase gamma. Briefly: Cellular U937 AKT assay K1 (MSD). In kind it is cell-based. The conditions noted are these: U937 cells, K1 format; read-out: Assay K1 PI3Kγ IC50.
The target of data set [5] is T3, PI 3-kinase gamma. Briefly: Cellular U937 AKT assay K2 (HTRF). The format is cell-based. The note with it: U937 cells, K2 format; read-out: Assay K2 PI3Kγ IC50. On the technique in general: In TR-FRET formats the signal depends on donor and acceptor labels being close together.
Method: In assays K1 and K2, the compounds were tested for their ability to inhibit the production of phosphorylated AKT (Protein Kinase B) generated in a PI 3-kinase gamma isoform-dependent process in a U937 human cell line.
Cellular U937 AKT Assay for PI 3-Kinase Gamma (K2)
U937 cells are split every 3-4 days: 5×10^6 cells/flask (175 cm^2) in 40 ml.
Semi-automated preparation of cell lysates: Cells were resuspended in HBSS, seeded (200′000 cells/well/60 μl) into a 384-well plate and incubated in a humidified 37° C., 5% CO2 incubator for 1.5 hours. The compounds were diluted with HBSS and 40 μl were added to the starved cells (except for wells 24 I-P). […] The cells were then incubated for 30 minutes at 37° C. and 5% CO2. Stimulation occurred during 3 minutes by addition of 20 μl MIP1α (final 10 ng/ml, diluted in HBSS) in the incubator. Wells 24 A-H were only stimulated with HBSS.
The stimulation was then stopped by putting the cell plates on ice (filled with cold water). The cells were then centrifuged at 1200 rpm and 4° C. for 3 minutes.
80 μl of supernatant was removed. The cells were again centrifuged at 1200 rpm and 4° C. for 3 minutes. The supernatant was then removed by turning plates upside down and 30 μl of lysis buffer were added. The plate was incubated at room temperature for 30 minutes under shaking. 16 μl were then transferred to a ProxiPlate Plus 384-well. 4 μl of the master mix (each conjugate diluted 1:20 with detection reagent) were added to each well and the plate was kept in the dark at room temperature for 4 hours.
Data set [6] deals with T4, PI 3-kinase delta (Homo sapiens, UniProt O00329). Kind of data set: TR-FRET Adapta assay, assay F. The note with it: read-out: Assay F PI3Kδ IC50.
Data set [7] is described as follows: Microsomal clearance assay (M). The note with it: intrinsic clearance in rat liver microsomes. For orientation: Microsomes from liver hold many membrane-bound enzymes, among them those of drug oxidation.
Method: The experiments were performed in 96-well glass plates at 37° C. on an automated Tecan EVO platform. Test compounds at a concentration of 10 mM in pure DMSO were diluted 1:1000 in water to 10 μM. […] Reactions were initiated by the addition of 150 μL of a cofactor solution containing 2 mM NADPH.
Data set [8] deals with T1, PI 3-kinase alpha. Kind of data set: Cellular assay H1, p-Akt (S473) in Rat-1 cells, Surefire format. The note with it: non-asterisked data: version H1 (Surefire format), Rat-1 cells; read-out: Assay H PI3Kα IC50. The format is cell-based.
Target sequence in this assay (P42336 whole entry): as the sequence (P42336 whole entry) above
Target sequence in this assay (Q63787 whole entry partner): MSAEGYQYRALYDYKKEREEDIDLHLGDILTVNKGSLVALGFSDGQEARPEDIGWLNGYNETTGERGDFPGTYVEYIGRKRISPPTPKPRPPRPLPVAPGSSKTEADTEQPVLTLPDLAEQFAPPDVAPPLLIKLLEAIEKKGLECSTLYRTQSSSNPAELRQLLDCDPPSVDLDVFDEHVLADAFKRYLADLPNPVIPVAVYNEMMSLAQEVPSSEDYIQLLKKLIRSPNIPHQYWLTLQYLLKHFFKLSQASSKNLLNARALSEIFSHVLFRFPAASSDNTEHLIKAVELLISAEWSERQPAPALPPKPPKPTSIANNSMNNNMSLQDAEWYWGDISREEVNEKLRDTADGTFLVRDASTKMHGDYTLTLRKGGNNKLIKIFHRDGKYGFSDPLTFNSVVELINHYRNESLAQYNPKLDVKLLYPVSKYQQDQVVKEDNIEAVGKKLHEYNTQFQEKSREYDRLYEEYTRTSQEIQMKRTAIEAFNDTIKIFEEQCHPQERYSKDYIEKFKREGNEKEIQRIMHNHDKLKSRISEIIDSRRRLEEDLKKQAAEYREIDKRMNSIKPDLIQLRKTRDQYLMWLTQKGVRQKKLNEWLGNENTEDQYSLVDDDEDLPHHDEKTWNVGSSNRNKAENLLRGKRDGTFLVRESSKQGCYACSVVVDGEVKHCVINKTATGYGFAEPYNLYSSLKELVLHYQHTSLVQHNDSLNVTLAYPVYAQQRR
The target of data set [9] is T2, PI 3-kinase beta. Kind of data set: Cellular assay I1, p-Akt (S473) in Rat-1 cells, Surefire format. The format is cell-based. The note with it: non-asterisked data: version I1 (Surefire format), Rat-1 cells; read-out: Assay I PI3Kβ IC50.
Target sequence in this assay (P42338 whole entry): as the sequence (P42338 whole entry) above
Target sequence in this assay (Q63787 whole entry partner): as the sequence (Q63787 whole entry partner) above
In data set [10] the target is T4, PI 3-kinase delta. Briefly: Cellular assay J1, p-Akt (S473) in Rat-1 cells, Surefire format. The format is cell-based. The conditions noted are these: non-asterisked data: version J1 (Surefire format), Rat-1 cells; read-out: Assay J PI3Kδ IC50.
For data set [11], the system named is IL-8-induced neutrophil shape change in human whole blood. Kind of data set: Whole blood neutrophil shape change assay (L). The format is cell-based. The note with it: Homo sapiens, Neutrophil, IL-8, human whole blood, read-out: Assay L WBSC IC50.

T3 sequence (P48736 whole entry): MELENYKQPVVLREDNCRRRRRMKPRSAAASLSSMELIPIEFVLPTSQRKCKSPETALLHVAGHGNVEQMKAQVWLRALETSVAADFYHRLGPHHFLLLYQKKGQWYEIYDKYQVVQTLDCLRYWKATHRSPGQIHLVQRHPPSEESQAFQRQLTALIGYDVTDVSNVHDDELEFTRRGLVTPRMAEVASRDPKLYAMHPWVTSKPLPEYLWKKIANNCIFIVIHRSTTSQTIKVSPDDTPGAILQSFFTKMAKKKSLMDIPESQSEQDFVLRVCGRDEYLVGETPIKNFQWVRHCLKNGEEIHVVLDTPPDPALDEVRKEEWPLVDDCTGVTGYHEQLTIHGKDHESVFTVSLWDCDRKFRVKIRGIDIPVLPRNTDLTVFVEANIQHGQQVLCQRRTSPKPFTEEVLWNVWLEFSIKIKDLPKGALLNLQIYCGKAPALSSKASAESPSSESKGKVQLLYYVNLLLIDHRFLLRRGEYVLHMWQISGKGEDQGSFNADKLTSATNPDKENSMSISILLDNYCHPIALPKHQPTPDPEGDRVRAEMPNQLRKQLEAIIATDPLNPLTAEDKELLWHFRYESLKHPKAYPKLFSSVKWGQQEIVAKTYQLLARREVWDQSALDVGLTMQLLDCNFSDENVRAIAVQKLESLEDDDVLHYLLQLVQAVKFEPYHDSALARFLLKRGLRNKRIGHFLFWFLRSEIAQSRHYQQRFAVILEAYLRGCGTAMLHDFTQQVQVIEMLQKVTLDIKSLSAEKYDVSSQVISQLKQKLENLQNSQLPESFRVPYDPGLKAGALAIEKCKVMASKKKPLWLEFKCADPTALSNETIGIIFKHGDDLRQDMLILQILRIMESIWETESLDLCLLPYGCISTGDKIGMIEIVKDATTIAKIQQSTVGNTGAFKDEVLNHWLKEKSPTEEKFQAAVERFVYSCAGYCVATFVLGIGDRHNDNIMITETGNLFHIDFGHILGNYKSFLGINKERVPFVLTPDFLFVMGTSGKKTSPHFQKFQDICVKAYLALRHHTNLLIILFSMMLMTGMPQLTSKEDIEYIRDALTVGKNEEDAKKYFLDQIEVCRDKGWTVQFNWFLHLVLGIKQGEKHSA
Chain of Vps34 (Q8NEB9 whole entry, species assumed): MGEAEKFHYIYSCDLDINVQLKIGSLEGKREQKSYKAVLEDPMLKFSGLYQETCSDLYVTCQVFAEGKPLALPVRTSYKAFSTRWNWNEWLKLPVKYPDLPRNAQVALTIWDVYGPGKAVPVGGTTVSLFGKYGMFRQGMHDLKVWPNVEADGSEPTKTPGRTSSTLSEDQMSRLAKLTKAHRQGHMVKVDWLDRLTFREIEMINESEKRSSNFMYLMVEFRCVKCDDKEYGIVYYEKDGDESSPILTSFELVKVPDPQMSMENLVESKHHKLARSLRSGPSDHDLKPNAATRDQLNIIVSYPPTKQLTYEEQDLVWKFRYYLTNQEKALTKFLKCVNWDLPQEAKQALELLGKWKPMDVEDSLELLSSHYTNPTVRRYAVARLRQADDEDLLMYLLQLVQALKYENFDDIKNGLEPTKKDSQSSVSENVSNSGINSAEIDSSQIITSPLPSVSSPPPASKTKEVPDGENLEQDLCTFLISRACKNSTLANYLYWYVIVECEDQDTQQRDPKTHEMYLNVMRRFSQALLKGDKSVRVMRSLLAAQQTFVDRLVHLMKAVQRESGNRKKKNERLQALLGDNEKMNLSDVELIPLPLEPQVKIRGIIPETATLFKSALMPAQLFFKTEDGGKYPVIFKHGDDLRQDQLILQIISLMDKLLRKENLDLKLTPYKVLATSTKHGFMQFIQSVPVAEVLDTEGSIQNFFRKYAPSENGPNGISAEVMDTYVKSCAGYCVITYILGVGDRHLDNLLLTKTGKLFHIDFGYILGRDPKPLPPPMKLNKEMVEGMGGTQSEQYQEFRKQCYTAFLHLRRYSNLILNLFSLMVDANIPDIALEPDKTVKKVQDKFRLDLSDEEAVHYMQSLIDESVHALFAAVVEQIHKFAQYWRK
Method for mTOR: Lanthascreen™ Kinase Binding Assay for mTOR (G)
Binding of an inhibitor to the kinase competes for binding with the tracer, resulting in a loss of FRET.
50 nL of compound dilutions were dispensed onto white 384-well small volume polystyrene plate.

Take `Cc1ccc(S(=O)(=O)NCC(C)(C)O)cc1-c1cnc(N)c(-c2ccoc2)n1` [Example 39, 3-(5-Amino-6-(furan-3-yl)pyrazin-2-yl)-N-(2-hydroxy-2-methylpropyl)-4-methylbenzenesulfonamide]: the half-maximal inhibitory concentration (IC50) is 0.79 µM on PI 3-kinase alpha [1]; 3.95 µM at PI 3-kinase beta [2]; greater than 9.55 µM on Vps34; 7.05 µM on PI 4-kinase beta; 0.067 µM at PI 3-kinase gamma [3]; greater than 9.55 µM on mTOR. The values for the half-inhibitory concentration (IC50) at PI 3-kinase gamma [4], on PI 3-kinase gamma [5] and at PI 3-kinase delta [6] were 0.192 µM, 0.999 µM and 1.07 µM, respectively. Moreover, in [7], the “Assay M RLM CI(int)” value came to 88 µL/min/mg.
As to `CCN1CCC[C@@H]1CNS(=O)(=O)c1ccc(C)c(-c2cnc(N)c(-c3cnc(C)s3)n2)c1` [Example 41, (R)-3-(5-Amino-6-(2-methylthiazol-5-yl)pyrazin-2-yl)-N-((1-ethylpyrrolidin-2-yl)methyl)-4-methylbenzenesulfonamide], the IC50 was 0.11 µM at PI 3-kinase alpha [1]; 0.25 µM at PI 3-kinase beta [2]; 7.7 µM on Vps34; 9.4 µM on PI 4-kinase beta; 0.01 µM at PI 3-kinase gamma [3]; greater than 3 µM on PI 3-kinase alpha [8]. The IC50 is 0.98 µM at PI 3-kinase beta [9]; less than 0.003 µM on PI 3-kinase delta [10]; 0.039 µM at PI 3-kinase gamma [4]; 0.024 µM at PI 3-kinase gamma [5]; 0.02 µM on PI 3-kinase delta [6]. In addition, in [7], the “Assay M RLM CI(int)” value amounted to 314 µL/min/mg.
With `Cc1ncc(-c2nc(-c3cc(S(=O)(=O)NC[C@H]4CCOC4)ccc3C)cnc2N)s1` [Example 42, (R)-3-(5-Amino-6-(2-methylthiazol-5-yl)pyrazin-2-yl)-4-methyl-N-((tetrahydrofuran-3-yl)methyl)benzenesulfonamide], the IC50 was 0.03 µM on PI 3-kinase alpha [1]; 0.66 µM at PI 3-kinase beta [2]; 4.65 µM at Vps34; 3.5 µM on PI 4-kinase beta; 0.007 µM at PI 3-kinase gamma [3]; 0.13 µM on PI 3-kinase alpha [8]. The half-inhibitory concentration (IC50) at PI 3-kinase beta [9] was determined as 0.79 µM; at PI 3-kinase delta [10], 0.16 µM; at PI 3-kinase gamma [4], 0.014 µM; at PI 3-kinase gamma [5], 0.018 µM; on PI 3-kinase delta [6], 0.03 µM. For the same compound, the “Assay M RLM CI(int)” value in [7] was 160 µL/min/mg.
On to `Cc1ncc(-c2nc(-c3cc(S(=O)(=O)NCC4(O)CCOCC4)ccc3C)cnc2N)s1` [Example 45.10, 3-(5-Amino-6-(2-methylthiazol-5-yl)pyrazin-2-yl)-N-((4-hydroxytetrahydro-2H-pyran-4-yl)methyl)-4-methylbenzenesulfonamide], for which the IC50 came to 0.02 µM at PI 3-kinase alpha [1]; 0.34 µM on PI 3-kinase beta [2]; 3.9 µM at Vps34; 1.9 µM at PI 4-kinase beta; 0.01 µM at PI 3-kinase gamma [3]; 0.03 µM at PI 3-kinase gamma [5]. Also, the IC50 was 0.662 µM in data set [11] and 0.15 µM at PI 3-kinase delta [6]. In data set [7], the “Assay M RLM CI(int)” value came out at 32 µL/min/mg.
For the compound `COC1(C)CN(S(=O)(=O)c2ccc(C)c(-c3cnc(N)c(-c4cn(C)nc4C)n3)c2)C1` [Example 102, 3-(1,3-Dimethyl-1H-pyrazol-4-yl)-5-(5-(3-methoxy-3-methylazetidin-1-ylsulfonyl)-2-methylphenyl)pyrazin-2-amine], the IC50 is 0.55 µM on PI 3-kinase alpha [1]; 1.8 µM on PI 3-kinase beta [2]; greater than 10 µM on Vps34; 5.9 µM at PI 4-kinase beta; 0.15 µM on PI 3-kinase gamma [3]; 2.9 µM at mTOR. The IC50 was 4.53 µM on PI 3-kinase alpha [8]; 5.3 µM on PI 3-kinase beta [9]; 1.33 µM at PI 3-kinase delta [10]; 0.211 µM at PI 3-kinase gamma [5]; 0.9 µM at PI 3-kinase delta [6]. Further, the “Assay M RLM CI(int)” value in data set [7] turned out to be 75 µL/min/mg.
With `Cc1ccc(S(=O)(=O)N2CC(F)(F)C2)cc1-c1cnc(N)c(-n2cncn2)n1` [Example 127.4], the IC50 is 2.55 µM on PI 3-kinase alpha [1]; 6.55 µM at PI 3-kinase beta [2]; greater than 9.55 µM on Vps34; 4.2 µM on PI 4-kinase beta; 0.26 µM at PI 3-kinase gamma [3]; greater than 9.55 µM at mTOR. Besides, the figures for the IC50 at PI 3-kinase gamma [4], at PI 3-kinase gamma [5] and on PI 3-kinase delta [6] were 1.97 µM, 1.49 µM and 2.5 µM, respectively. Also, in [7], the “Assay M RLM CI(int)” value was determined as 85 µL/min/mg.
With `Cc1ccc(S(=O)(=O)N2CC(F)C2)cc1-c1cnc(N)c(-n2cncn2)n1` [Example 127.5], the concentration for half-maximal inhibition (IC50) on PI 3-kinase alpha [1] was 0.4 µM; at PI 3-kinase beta [2] it was 3.1 µM; on Vps34, greater than 10 µM; at PI 4-kinase beta, greater than 10 µM; on PI 3-kinase gamma [3] it was 0.1 µM; at mTOR, 1.8 µM. In addition, the results for the half-inhibitory concentration (IC50) (on PI 3-kinase gamma [5]; in data set [11]; on PI 3-kinase delta [6]) were 0.419 µM, 9.68 µM and 3.9 µM, respectively. Further, the “Assay M RLM CI(int)” value in data set [7] was 72 µL/min/mg.
As to `Cc1ccc(S(=O)(=O)N2CC(CO)C2)cc1-c1cnc(N)c(-n2cncn2)n1` [Example 127.45], the IC50 at PI 3-kinase alpha [1] is 0.42 µM; on PI 3-kinase beta [2] it was 6.2 µM; at Vps34 it was greater than 9.1 µM; on PI 4-kinase beta it was 3.4 µM; at PI 3-kinase gamma [3], 0.06 µM; at mTOR, greater than 9.1 µM. The IC50 on PI 3-kinase alpha [8] is 6.11 µM; on PI 3-kinase beta [9], 9.05 µM; at PI 3-kinase delta [10], 7.27 µM; at PI 3-kinase gamma [5], 0.323 µM; in [11] it was 2.65 µM; on PI 3-kinase delta [6], 1.5 µM. Also, the “Assay M RLM CI(int)” value in [7] came to 26 µL/min/mg.
Consider `Cc1ccc(S(=O)(=O)NCC2(C)CCCO2)cc1-c1cnc(N)c(-c2cn(C)nc2C)n1` (centres unmarked) [Example 128.4, 3-(5-Amino-6-(1,3-dimethyl-1H-pyrazol-4-yl)pyrazin-2-yl)-4-methyl-N-((2-methyltetrahydrofuran-2-yl)methyl)benzenesulfonamide], for which the IC50 is 0.1 µM on PI 3-kinase alpha [1]; 1.7 µM at PI 3-kinase beta [2]; greater than 10 µM at Vps34; greater than 10 µM at PI 4-kinase beta; 0.045 µM on PI 3-kinase gamma [3]; 1.51 µM on PI 3-kinase alpha [8]. The concentration for half-maximal inhibition (IC50) amounted to 1.55 µM at PI 3-kinase beta [9]; 0.78 µM on PI 3-kinase delta [10]; 0.104 µM at PI 3-kinase gamma [4]; 0.28 µM at PI 3-kinase gamma [5]; 0.5 µM on PI 3-kinase delta [6]. Moreover, the “Assay M RLM CI(int)” value in data set [7] worked out at 134 µL/min/mg.
Take `Cc1ccc(S(=O)(=O)NC[C@@H]2COCCN2)cc1-c1cnc(N)c(-c2cn(C)nc2C)n1` [Example 128.6, (R)-3-(5-Amino-6-(1,3-dimethyl-1H-pyrazol-4-yl)pyrazin-2-yl)-4-methyl-N-(morpholin-3-ylmethyl)benzenesulfonamide]: the half-inhibitory concentration (IC50) is 0.19 µM at PI 3-kinase alpha [1]; 7.7 µM on PI 3-kinase beta [2]; greater than 10 µM at Vps34; greater than 10 µM on PI 4-kinase beta; 0.19 µM on PI 3-kinase gamma [3]; greater than 10 µM at PI 3-kinase alpha [8]. Further, the IC50 on PI 3-kinase beta [9] was greater than 10 µM; at PI 3-kinase delta [10], greater than 10 µM; on PI 3-kinase gamma [5] it was 0.193 µM; in data set [11] it was 2.18 µM; on PI 3-kinase delta [6] it was 0.3 µM. For the same compound, the “Assay M RLM CI(int)” value in data set [7] amounted to 20 µL/min/mg.
As to `Cc1cc(-c2nc(-c3cc(S(=O)(=O)NC[C@H]4CCCO4)ccc3C)cnc2N)ccn1` [Example 129.12, (R)-3-(5-amino-6-(2-methylpyridin-4-yl)pyrazin-2-yl)-4-methyl-N-((tetrahydrofuran-2-yl)methyl)benzenesulfonamide], the half-maximal inhibitory concentration (IC50) is 1.2 µM at PI 3-kinase alpha [1]; greater than 9.1 µM on PI 3-kinase beta [2]; greater than 9.1 µM at Vps34; greater than 9.1 µM at PI 4-kinase beta; 0.058 µM at PI 3-kinase gamma [3]; 8.7 µM on mTOR. Further, the 50% inhibitory concentration (IC50) at PI 3-kinase alpha [8] was 4.29 µM; at PI 3-kinase beta [9], greater than 10 µM; on PI 3-kinase delta [10] it was 4.97 µM; at PI 3-kinase gamma [4] it was 0.804 µM; at PI 3-kinase gamma [5], 1.6 µM; on PI 3-kinase delta [6], 0.91 µM. Moreover, the “Assay M RLM CI(int)” value in data set [7] stood at 99 µL/min/mg.
Regarding `Cc1cc(-c2nc(-c3cc(S(=O)(=O)NC[C@H]4CCNC4)ccc3C)cnc2N)ccn1` [Example 129.36, (S)-3-(5-amino-6-(2-methylpyridin-4-yl)pyrazin-2-yl)-4-methyl-N-(pyrrolidin-3-ylmethyl)benzenesulfonamide], the concentration for half-maximal inhibition (IC50) at PI 3-kinase alpha [1] is 1.3 µM; on PI 3-kinase beta [2], 6.9 µM; at Vps34 it was greater than 9.1 µM; on PI 4-kinase beta, greater than 9.1 µM; at PI 3-kinase gamma [3], 0.11 µM; at mTOR, greater than 9.1 µM. For the same compound, the IC50 at PI 3-kinase alpha [8] was greater than 10 µM; at PI 3-kinase beta [9], greater than 3 µM; at PI 3-kinase gamma [4], 6.21 µM; at PI 3-kinase gamma [5] it was greater than 10 µM; on PI 3-kinase delta [6] it was 0.96 µM. Further, in data set [7], the “Assay M RLM CI(int)” value turned out to be 15 µL/min/mg.

As a reminder, the IC50 is the concentration that gives 50% inhibition.
